Data on 3 compounds can be found in US8629242B2, “Methods of inhibiting calcineurin with ApoE analogs” (Cognosci, Inc., priority 2007, dated 2014).

For series [1], the system named is oligodendrocyte precursor cells (OPC)/microglia mixed culture. Kind of series: LPS-induced OPC cell death in OPC/microglia mixed culture. The conditions noted are these: 1 μM, LPS 10 ng/ml; for OPC cell death by LDH and MTT assays: 24 hours. The format is cell-based, rat. As for the experimental part: FIG. 9. COG 112 protects OPCs from LPS-induced cell death in OPC/microglia mixed culture. LPS (final conc. 10 ng/ml) was added to an OPC/microglia mixed culture with or without 1 μM COG 112. The prefix peptide of COG 112, antennapedia, was used as a negative control. Cells were fixed with 4% formaldehyde and stained with the OPC marker, NG2, and counterstained with hoescht. (A) LPS-treated cultures; (B) LPS+antennapedia (Antp)-treated cultures; (C) LPS+COG 112-treated cultures; (D) Bar graph summarizing the number of NG2+ cells per field in each condition. ** p<0.01.
FIG. 19. COG 345 promotes remyelination in lysolecithin-induced demyelination model of cerebellum slices. Significant demyelination was induced by lysolecithin (0.5 mg/ml) in cerebellar slices. COG 112 or COG 345 (1 μM) was added on day 3 when full demyelination was achieved. 4 days later, the slices were fixed and double stained with myelin marker MBP (green) and Purkinje cell marker calbindin (red). (A) Untreated-slices; (B) lysolecithin-treated slices; (C) COG 112-treated slices after lysolecithin exposure; (D) COG 345-treated slices after lysolecithin exposure. E-F. ApoE analogs protect OPCs from LPS-induced cell death in OPC/microglia mixed culture. OPCs and microglia derived from brain culture of P2 rat pups were plated in 96-well plates in 1:1 ratio. LPS (10 ng/ml) together with 1 μM of the indicated ApoE analogs was added to the cultures. After 24 hours, OPC cell death was quantified by LDH assay (E) and MTT assay (F). Statistical analysis was conducted by one-way ANOVA followed by Dunnett comparison vs. LPS group. * P<0.01, ** P<0.001, n=3.
A primary culture prepared from the brains of P2 Sprague-Dawley rat pups was grown for seven days. Microglia and OPCs were shaken off from the primary culture with an orbital shaker at 150˜200 rpm. The OPCs and microglia were plated in 24-well plates at a 1:1 ratio with 5×10^4 cells per well of each cell type. After 24 hours, LPS (final conc. 10 ng/ml) was added with or without 1 μM COG 112. The prefix peptide of COG 112, antennapedia, was used as a negative control. After incubation for 72 hours, the medium was removed and cells were fixed with 4% formaldehyde and stained with the OPC marker, NG2, and counterstained with hoescht. Five fields from each of the wells were randomly chosen to count the number of NG2-positive cells.
To further assess the ability of the novel ApoE analogs to promote remyelination, the effect of the analogs on OPC survival was assessed in an OPC/microglia mixed culture. OPC and microglia derived from primary culture of P2 rat pup brain were plated on 96-well plates in 1:1 ratio. […] After 24 hours, cell death of OPC was quantified by both LDH and MTT assays.

The subject of series [2] is microglia cell line BV2. Kind of series: LPS-induced NO and TNF-α release in BV2 microglia. The series is classed as cell-based, murine. To be noted: LPS 10 ng/ml, 24 hours. As for the experimental part:
FIG. 16. […] Series concentrations of ApoE analogs were added to culture medium together with LPS (10 ng/ml). 24 hours later, culture medium was collected for measurement of NO by Griess assay or TNF-α by ELISA. […] ApoE analogs (10 μM) were added to the cell medium of human macrophage U937 5 minutes prior to PMA+LPS treatment. The release of superoxide in culture medium was measured by Luminol assay kit (Calbiochem).
The murine microglia cell line BV2 was used as the first screening platform to compare the potency of ApoE analogs in anti-inflammatory activity. In response to LPS, BV2 produces amounts of reactive radical NO and inflammatory cytokines, such as TNF-α and IL-6. We stimulated the cells with LPS (10 ng/ml) in the presence of several concentrations of each of the ApoE analogs. We measured NO in medium by Griess assay and TNF-α by ELISA 24 hours after LPS stimulation of the cells. The IC50 value was calculated for each of the ApoE analogs.

Series [3] concerns macrophage cell line U937. Kind of series: Superoxide release in PMA+LPS-treated U937 macrophages. The format is cell-based, human. The conditions noted are these: 10 μM, IFN-γ-differentiated cells. As for the experimental part:
FIG. 16. ApoE analogs suppress the release of nitric oxide (A) and TNF-α (B) in LPS-treated BV2 microglia cells. Series concentrations of ApoE analogs were added to culture medium together with LPS (10 ng/ml). 24 hours later, culture medium was collected for measurement of NO by Griess assay or TNF-α by ELISA. (C) ApoE analogs inhibit superoxide formation in PMA+LPS-treated human macrophage cell line U937. ApoE analogs (10 μM) were added to the cell medium of human macrophage U937 5 minutes prior to PMA+LPS treatment. The release of superoxide in culture medium was measured by Luminol assay kit (Calbiochem).
To determine the anti-oxidant effect of the different ApoE analogs, the human macrophage cell line U937 was differentiated with IFN-γ (40 U/ml) for 4 days and treated with phorbol-12-myristate-13-acetate (PMA) and LPS with or without ApoE analogs (10 μM). The release of superoxide in the medium was measured by Luminol Superoxide Assay kit (Calbiochem, CA).

Series [4] deals with PLP-induced relapsing-remitting experimental autoimmune encephalomyelitis (EAE) model. Kind of series: PLP-induced relapsing-remitting EAE model. The format is in vivo. Details: CSmax during relapse (mean ± SEM) / Area under curve (mean ± SEM): scale not given here. To be noted: 4 mg/kg s.c.; for Area under curve (mean ± SEM): clinical score vs days post-inoculation, out to 60 days; for CSmax during relapse (mean ± SEM): maximal clinical score during relapse; for Relapse Rate: number of animals experiencing a relapse. The method, then: To further compare the activity of the various ApoE analogs, the efficacy of the analogs was assessed in a PLP-induced relapsing-remitting experimental autoimmune encephalomyelitis (EAE) model. […] The second dose was administered the next day followed by three times a week (M, W, F). Relapse rate represents the number of animals experiencing a relapse, while the CSmax indicates the maximal clinical score during relapse. Area under curve represents the area under the curve in a plot of clinical score vs. days post-inoculation (out to 60 days). […] The improvement in relapse rate and clinical score in the EAE model by ApoE analog treatment may be due, in part, to the remyelination-promoting effect of the ApoE analogs.

The nature of series [5]: Maximum tolerated dose. The series is classed as in vivo. To be noted: for MTD: in vivo. An excerpt:
To fully evaluate the use of ApoE analogs as therapeutic compounds, the margin of safety should also be determined. Towards that end, we determined the maximum tolerated dose of COG 112, COG 248, and COG 345 when administered by intravenous and subcutaneous injection.

Series [6] concerns animal model of human diseases. The series is described as follows: Minimum effective dose in animal models. The series is classed as in vivo.
[7] abbreviates: sc, subcutaneous injection, read-out: Maximum Tolerated Dose Subcutaneous.
Setting [8] is: intravenous injection, read-out: Maximum Tolerated Dose Intravenous.

Read-outs that look alike come from different tables or passages of the source. Where a SMILES comes first, the peptide text is derived from it. [ ]: non-standard residue; d: D form. Aib = CC(C)(N)C(=O)O

`CC(=O)NC(=N)NCCC[C@H](NC(=O)[C@H](CCCCN)NC(=O)[C@H](CCCNC(=N)N)NC(=O)[C@H](CC(C)C)NC(=O)[C@H](CCCCN)NC(=O)[C@H](CCCNC(=N)N)NC(=O)[C@H](CC(C)C)NC(=O)C(C)(C)NC(=O)[C@H](CO)NC(=O)[C@H](C)NC(=O)[C@H](CC(C)C)NC(=O)[C@H](CCCNC(=N)N)NC(=O)[C@@H](NC(=O)[C@H](CCCNC(=N)N)NC(=O)[C@H](CC(C)C)NC(C)=O)C(C)C)C(=O)N[C@@H](CC(C)C)C(=O)N[C@@H](CC(C)C)C(N)=O` [COG 345, acetyl-LRVRLAS-Aib-LRKLRK(acetyl-Arg)LL-amide] (Ac-LRVRLAS[Aib]LRKLRKR(Ac)LL-NH2): in series [1], the “OPC cell death by LDH and MTT assays” value is on record as “most potent”. Also, the “activity in suppression of microglia activation (NO by Griess assay, TNF-α by ELISA)” value in series [2] was “clearly superior to that of COG 133”. Besides, the superoxide release result in series [3] is reported as “significantly inhibited superoxide release”. For the same compound, in series [4], the “improvement in relapse rate and maximum clinical score during relapse” value is on record as “significant improvement”; the “Area under curve (mean ± SEM)” value turned out to be 15.5 ± 2.5; the “CSmax during relapse (mean ± SEM)” value is 1.4 ± 0.2; the “Relapse Rate” value is on record as 4/15. Also, the “safety profile by intravenous injection” value in series [5] (compared to the other analogs on a molar basis) is reported as “superior safety profile”. Also, in series [5] (setting [7]), the MTD is over 150 mg/kg. Besides, the MTD in series [5] (setting [8]) is 20 to 25 mg/kg. Also, the “Minimum Effective Dose (model)” value in series [6] (model: EAE) was 1 mg/kg (EAE).

As for `CC(=O)N[C@@H](CC(C)C)C(=O)N[C@@H](CCCNC(=N)N)C(=O)N[C@H](C(=O)N[C@@H](CCCNC(=N)N)C(=O)N[C@@H](CC(C)C)C(=O)N[C@@H](C)C(=O)N[C@@H](CO)C(=O)N[C@@H](Cc1c[nH]cn1)C(=O)N[C@@H](CC(C)C)C(=O)N[C@@H](CCCNC(=N)N)C(=O)N[C@@H](CCCCN)C(=O)N[C@@H](CC(C)C)C(=O)N[C@@H](CCCNC(=N)N)C(=O)N[C@@H](CCCCN)C(=O)N[C@@H](CCCNC(=N)N)C(=O)N[C@@H](CC(C)C)C(=O)N[C@@H](CC(C)C)C(N)=O)C(C)C` [COG 133], in series [4], the “Area under curve (mean ± SEM)” value stood at 25.3 ± 8.3, the “CSmax during relapse (mean ± SEM)” value was determined as 3.2 ± 0.7 and the “Relapse Rate” value is on record as 7/14. Further, the MTD in series [5] (setting [7]) was over 100 mg/kg. Further, the MTD in series [5] (setting [8]) turned out to be 16 mg/kg. Further, in series [6] (models: CIA, EAE), the “Minimum Effective Dose (model)” value is given as 1 mg/kg (CIA, EAE).

In the case of “Ac-RQIKIWFQNRRMKWKKCLRVRLASHLRKLRKRLL-NH2 [COG 112]”, the “OPC cell death by LDH and MTT assays” value in series [1] is reported as “most potent”. The “LPS-induced cell death of OPCs (number of NG2-positive cells)” value in series [1] (72 hours) is “significantly reduced LPS-induced cell death of OPCs”. In addition, the “activity in suppression of microglia activation (NO by Griess assay, TNF-α by ELISA)” value in series [2] is recorded as “clearly superior to that of COG 133”. Moreover, the superoxide release result in series [3] is “significantly inhibited superoxide release”. In series [4], the “Area under curve (mean ± SEM)” value was 16.7 ± 3.6, the “CSmax during relapse (mean ± SEM)” value was determined as 2.4 ± 0.8 and the “Relapse Rate” value is given as 5/14. Also, the MTD in series [5] (setting [7]) is over 100 mg/kg. In series [5] (setting [8]), the MTD is 28 mg/kg. In series [6] (models: EAE, TBI), the “Minimum Effective Dose (model)” value is 1 mg/kg (EAE, TBI).
